Read-outs that look alike come from different tables or passages of the source.
Columns and labels:
[1] = test system: MX-1 (human breast cancer) cell line; assay: cells; conditions: 72 h, read-out: Cytotoxicity IC50, MX-1
in vitro = conditions: human
[2] = test system: ID-8 (murine ovarian cancer) cell line; assay: cells; conditions: Mus musculus, 72 h, read-out: Cytotoxicity IC50, ID-8
[3] = test system: MX-1 (human breast cancer) cell line
[4] = test system: WI-38 (human lung fibroblast, normal) cell line
[5] = test system: ID-8 (murine ovarian cancer) cell line

Compound | IC50 [1] [nM] | IC50 (in vitro) [nM] | IC50 [2] [nM] | IC50 [3] [nM] | IC50 [4] [nM] | IC50 [5] [nM]
CC(=O)O[C@H]1C(=O)[C@@]2(C)[C@H]([C@H](OC(=O)c3ccccc3)[C@]3(O)C[C@H](OC(=O)[C@H](O)[C@@H](NC(=O)c4ccccc4)c4ccccc4)C(C)=C1C3(C)C)[C@]1(OC(C)=O)CO[C@@H]1C[C@@H]2O [paclitaxel] | 3.83 ± 0.59 | 175 ± 51.6 | 21.2 ± 4.3 | – | – | –
SB-T-1214 [compound 4, reference compound] | – | – | – | 2.9 ± 0.47 | 4.14 ± 0.82 | 1.89 ± 0.3

Reference: paper PMC5928494 (ACS Omega, 2018)
